Our source for the IC50 values is patent publication US20260224571A1, “AZACYCLOALKANE COMPOUND AND PHARMACEUTICAL COMPOSITION, AND USE THEREOF” (Prime Gene Therapeutics Co., Ltd., priority 2023, published 2026).

Structures are written as SMILES. Where a name gives a salt, the structure may show the parent alone. Bounds are passed on as bounds.

A word on the IC50: it is the concentration that gives 50% inhibition.

One test deals with ROCK1 (Homo sapiens, UniProt Q13464). In words: ROCK1 kinase enzymatic activity (HTRF, STK2 substrate). The format is biochemical. The note with it: ROCK1 kinase reacted at room temperature for 20 minutes. An excerpt:
(§1) The kinase activity data was expressed by comparing the kinase activity of the test compound and that of the blank group (containing only DMSO), and the IC50 value was obtained by curve fitting using Prism software (GraphPad7.0).
(In TR-FRET formats the signal depends on donor and acceptor labels being close together.)

The next test deals with ROCK2 (Homo sapiens, UniProt O75116). In words: ROCK2 kinase enzymatic activity (HTRF, STK2 substrate). The format is biochemical. The note with it: ROCK2 kinase reacted at room temperature for 30 minutes.
Excerpt: as §1

Test [1] relates to phosphorylation of myosin light chain T18/S19. Nature of the test: In Cell Western for phosphorylation of myosin light chain in A7r5 cells. It is filed as cell-based. The note with it: rat smooth muscle cell line A7r5, 1 hour with compound, phospho-MLC-T18/S19; read-out: cellular activity IC50. The text has this:
The rat smooth muscle cell line A7r5 was used, and the A7r5 cell culture conditions were DMEM containing 10% FBS. Phspho-MLC-T18/S19 specific antibody and a second detection antibody were used to detect the phosphorylation level of myosin light chain by In Cell Western. Cells treated with positive compounds were used as positive controls, while the group without compounds but with compound solvents was used as negative controls. DRAQ5 stained cell nuclei were used as internal references. GraphPad Prism 7.0 software was used, and fitting was carried out by using a non-linear regression curve with varying slopes to determine the absolute IC50 value.
On the first day, A7r5 cells were resuspended in serum-free medium and seeded into 384 wells of PDL coated transparent black plates at a density of 5000 cells per well. Serum starvation culture was performed for 4 hours, and the cells were incubated with the compound in serum-free medium for 1 hour. 50 μL of 8% PFA (polyformaldehyde) was added to each well and fixed at room temperature for 1 hour. The liquid in the wells was discard and 90 μL of ice methanol was added to each well to permeabilize the cells at 4° C. for 1 hour. Then, PBST (0.1% Tween20-PBS) was added using an automatic separator to wash three times. After patting the plate for drying, 50 μL blocking solution was added to each well for sealing at room temperature for 1 hour. The phspho-MLC-T18/S19 specific antibody was diluted with the blocking solution at a ratio of 1:200. After adding 20 μL to each well, incubation was carried out overnight at 4° C. with a sealed film.
On the second day, the liquid in the wells was discarded and PBST was added using an automatic separator to wash the plate 5 times. After patting the plate for drying, the second detection antibody was diluted with blocking solution at a ratio of 1:800 and DRAQ5 at a ratio of 1:1000. After adding 20 μL to each well, incubation was carried out at room temperature for 1 hour. Then, the liquid in the wells was discarded and PBST was added using an automatic separator to wash the plate 3 times, followed by adding ddH2O to wash the plate 3 times. After patting the plate for drying, it was scanned using a LICOR Odyssey near-infrared imaging scanner.

Chain of ROCK1 (Q13464 whole entry): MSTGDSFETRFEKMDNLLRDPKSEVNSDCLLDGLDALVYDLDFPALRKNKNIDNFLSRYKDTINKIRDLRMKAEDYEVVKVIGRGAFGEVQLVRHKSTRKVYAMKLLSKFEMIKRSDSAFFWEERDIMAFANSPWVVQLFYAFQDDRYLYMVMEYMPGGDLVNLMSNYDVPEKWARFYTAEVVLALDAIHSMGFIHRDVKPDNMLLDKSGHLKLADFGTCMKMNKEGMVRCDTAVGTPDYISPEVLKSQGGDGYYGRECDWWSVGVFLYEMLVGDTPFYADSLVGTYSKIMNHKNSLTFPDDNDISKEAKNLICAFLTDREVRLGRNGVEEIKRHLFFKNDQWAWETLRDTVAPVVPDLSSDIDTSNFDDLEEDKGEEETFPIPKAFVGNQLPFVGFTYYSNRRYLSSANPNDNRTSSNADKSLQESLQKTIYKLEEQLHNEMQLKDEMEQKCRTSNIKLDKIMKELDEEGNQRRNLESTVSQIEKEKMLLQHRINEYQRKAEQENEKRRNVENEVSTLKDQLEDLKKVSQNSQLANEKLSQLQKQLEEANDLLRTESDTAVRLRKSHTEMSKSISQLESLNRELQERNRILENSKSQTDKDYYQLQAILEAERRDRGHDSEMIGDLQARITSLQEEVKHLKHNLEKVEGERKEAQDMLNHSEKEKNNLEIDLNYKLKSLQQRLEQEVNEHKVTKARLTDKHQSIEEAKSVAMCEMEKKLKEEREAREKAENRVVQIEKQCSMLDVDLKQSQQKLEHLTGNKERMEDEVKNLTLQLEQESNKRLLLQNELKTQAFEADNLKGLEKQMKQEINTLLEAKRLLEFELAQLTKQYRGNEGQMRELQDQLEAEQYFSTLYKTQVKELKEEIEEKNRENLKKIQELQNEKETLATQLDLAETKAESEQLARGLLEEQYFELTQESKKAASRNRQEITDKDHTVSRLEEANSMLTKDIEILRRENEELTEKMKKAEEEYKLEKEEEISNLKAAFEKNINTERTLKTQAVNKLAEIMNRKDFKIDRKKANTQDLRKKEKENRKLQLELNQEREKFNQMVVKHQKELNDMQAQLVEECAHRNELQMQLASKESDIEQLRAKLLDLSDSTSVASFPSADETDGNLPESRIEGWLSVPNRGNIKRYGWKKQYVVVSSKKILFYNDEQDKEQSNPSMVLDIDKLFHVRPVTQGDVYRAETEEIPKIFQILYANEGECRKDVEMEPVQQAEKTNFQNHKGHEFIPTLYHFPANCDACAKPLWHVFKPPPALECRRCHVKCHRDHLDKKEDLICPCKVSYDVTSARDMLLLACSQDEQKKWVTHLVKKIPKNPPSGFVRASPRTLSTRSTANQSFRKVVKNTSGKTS
Chain of ROCK2 (O75116 whole entry): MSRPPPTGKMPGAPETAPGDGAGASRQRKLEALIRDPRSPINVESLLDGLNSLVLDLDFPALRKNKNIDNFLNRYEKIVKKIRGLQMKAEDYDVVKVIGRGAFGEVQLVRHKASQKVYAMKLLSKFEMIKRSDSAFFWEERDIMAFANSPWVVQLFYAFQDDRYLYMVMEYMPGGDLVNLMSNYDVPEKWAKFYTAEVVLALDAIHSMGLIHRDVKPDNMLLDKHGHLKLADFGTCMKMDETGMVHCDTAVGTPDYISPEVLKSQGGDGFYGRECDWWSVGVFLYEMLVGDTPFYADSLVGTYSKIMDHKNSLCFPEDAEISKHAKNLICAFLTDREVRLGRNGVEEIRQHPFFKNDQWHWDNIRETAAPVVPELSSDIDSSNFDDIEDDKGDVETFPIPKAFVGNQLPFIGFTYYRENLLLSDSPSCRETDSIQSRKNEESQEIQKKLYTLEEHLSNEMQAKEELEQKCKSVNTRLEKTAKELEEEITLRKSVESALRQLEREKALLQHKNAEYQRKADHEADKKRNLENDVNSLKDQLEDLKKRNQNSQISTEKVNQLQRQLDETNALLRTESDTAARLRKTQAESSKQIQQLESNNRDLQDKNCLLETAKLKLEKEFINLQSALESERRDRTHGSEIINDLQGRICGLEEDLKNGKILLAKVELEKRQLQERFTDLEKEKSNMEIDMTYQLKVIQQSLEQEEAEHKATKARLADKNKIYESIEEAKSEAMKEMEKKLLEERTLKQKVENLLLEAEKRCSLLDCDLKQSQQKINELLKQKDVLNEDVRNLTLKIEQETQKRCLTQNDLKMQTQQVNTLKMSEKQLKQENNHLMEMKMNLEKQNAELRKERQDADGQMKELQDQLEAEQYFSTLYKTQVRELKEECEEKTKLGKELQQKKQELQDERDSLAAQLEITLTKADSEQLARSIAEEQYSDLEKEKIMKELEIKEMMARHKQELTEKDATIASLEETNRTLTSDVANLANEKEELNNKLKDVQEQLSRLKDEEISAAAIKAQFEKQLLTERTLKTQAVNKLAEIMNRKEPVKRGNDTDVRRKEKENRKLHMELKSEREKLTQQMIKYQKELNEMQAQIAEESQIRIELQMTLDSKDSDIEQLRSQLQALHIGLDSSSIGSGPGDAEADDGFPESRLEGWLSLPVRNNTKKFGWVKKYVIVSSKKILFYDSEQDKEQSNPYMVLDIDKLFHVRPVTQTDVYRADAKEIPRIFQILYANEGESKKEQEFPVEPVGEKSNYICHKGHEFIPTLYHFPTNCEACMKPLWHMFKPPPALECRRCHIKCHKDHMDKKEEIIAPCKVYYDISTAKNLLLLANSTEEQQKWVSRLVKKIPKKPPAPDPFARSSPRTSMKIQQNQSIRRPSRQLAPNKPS

Regarding `N#CCNS(=O)(=O)N1CC(CC#N)(n2cc(-c3ncnc4[nH]ccc34)c(N)n2)C1` [Example 50, 3-(3-amino-4-(7H-pyrrolo[2,3-d]pyrimidin-4-yl)-1H-pyrazol-1-yl)-N,3-bis(cyanomethyl)azetidine-1-sulfonamide], the half-maximal inhibitory concentration (IC50) against ROCK1 is below 10 nM; against ROCK2, below 10 nM; in test [1], 98 nM.

Regarding `Cn1cc(Nc2cc(-c3cn(C4(CC#N)CN(S(C)(=O)=O)C4)nc3N)ncn2)cn1` [Example 69], the 50% inhibitory concentration (IC50) on ROCK1 is above 100 nM; on ROCK2, above 100 nM; in test [1] it was above 10000 nM.

Regarding `N#CCC1(n2cc(-c3ncnc4[nH]ccc34)c(N)n2)CN(C(=O)[C@H]2C[C@@H]2F)C1` [Example 31, 2-(3-(3-amino-4-(7H-pyrrolo[2,3-d]pyrimidin-4-yl)-1H-pyrazol-1-yl)-1-((1R, 2S)-2-fluorocyclopropane-1-carbonyl)azetidine-3-yl)acetonitrile], the IC50 is below 5 nM against ROCK1, below 5 nM at ROCK2 and 381 nM in test [1].

Consider `COc1nsc(NC(=O)N2CC(CC#N)(n3cc(-c4ncnc5[nH]ccc45)c(N)n3)C2)n1` [Example 19, 3-(3-amino-4-(7H-pyrrolo[2,3-d]pyrimidin-4-yl)-1H-pyrazol-1-yl)-3-(cyanomethyl)-N-(3-methoxy-1,2,4-thiadiazol-5-yl)azetidine-1-formamide], for which the half-inhibitory concentration (IC50) against ROCK1 is below 10 nM; against ROCK2, below 10 nM; in test [1], above 10000 nM.

`CCNc1nn(C2(CC#N)CN(S(=O)(=O)C(F)(F)F)C2)cc1-c1ncnc2[nH]ccc12` [Example 6, 2-(3-(3-(ethylamino)-4-(7H-pyrrolo[2,3-d]pyrimidin-4-yl)-1H-pyrazol-1-yl)-1-((trifluoromethyl)sulfonyl)azetidine-3-yl)acetonitrile]: the results for the IC50 (at ROCK1; against ROCK2; in test [1]) were below 5 nM, below 5 nM and 181 nM, respectively.

As to `C[C@@H](N)CS(=O)(=O)N1CC(CC#N)(n2cc(-c3ncnc4[nH]ccc34)c(N)n2)C1` [Example 88, (R)-2-(3-(3-amino-4-(7H-pyrrolo[2,3-d]pyrimidin-4-yl)-1H-pyrazol-1-yl)-1-((2-aminopropyl)sulfonyl)azetidine-3-yl)acetonitrile trifluoroacetate salt], the half-inhibitory concentration (IC50) on ROCK1 is below 5 nM; at ROCK2, below 5 nM; in test [1] it was 826 nM.

On to `CCS(=O)(=O)N1CC(CC#N)(n2cc(-c3cc(-c4cnn(C)c4)nc4ccnn34)c(N)n2)C1` [Example 82], for which the values for the IC50 (against ROCK1; against ROCK2; in test [1]) were above 100 nM, above 100 nM and above 10000 nM, respectively.

In the case of `N#CCC1(n2cc(-c3ncnc4[nH]ccc34)c(C(N)=O)n2)CN(C(=O)NCC(F)(F)F)C1` [Example 61, 1-(3-(cyanomethyl)-1-((2,2,2-trifluoroethyl)carbamoyl)azetidine-3-yl)-4-(7H-pyrrolo[2,3-d]pyrimidin-4-yl)-1H-pyrazol-3-formamide], the half-maximal inhibitory concentration (IC50) against ROCK1 was above 100 nM; against ROCK2, above 100 nM; in test [1], above 10000 nM.

Take `N#CCC1(n2cc(-c3ncnc4[nH]ccc34)c(N)n2)CN(S(=O)(=O)NCC(F)(F)F)C1` [Example 40, 3-(3-amino-4-(7H-pyrrolo[2,3-d]pyrimidin-4-yl)-1H-pyrazol-1-yl)-3-(cyanomethyl)-N-(2,2,2-trifluoroethyl)azetidine-1l-sulfonamide]: the concentration for half-maximal inhibition (IC50) is below 10 nM at ROCK1, below 10 nM against ROCK2 and 1570 nM in test [1].

As to `CCNS(=O)(=O)N1CC(CC#N)(n2cc(-c3ncnc4[nH]ccc34)c(N)n2)C1` [Example 41, 3-(3-amino-4-(7H-pyrrolo[2,3-d]pyrimidin-4-yl)-1H-pyrazol-1-yl)-3-(cyanomethyl)-N-ethylazetidine-1-sulfonamide], the IC50 against ROCK1 was below 10 nM; at ROCK2 it was below 10 nM; in test [1], 91 nM.

On to `N#CCC1(n2cc(-c3ncnc4[nH]ccc34)c(N)n2)CN(S(N)(=O)=O)C1` [Example 45, 3-(3-amino-4-(7H-pyrrolo[2,3-d]pyrimidin-4-yl)-1H-pyrazol-1-yl)-3-(cyanomethyl)azetidine-1-sulfonamide], for which the half-inhibitory concentration (IC50) against ROCK1 was below 5 nM; against ROCK2 it was below 5 nM; in test [1], 579 nM.

For `CCS(=N)(=O)N1CC(CC#N)(n2cc(-c3ncnc4[nH]ccc34)c(N)n2)C1` (stereo not drawn) [Example 38, 2-(3-(3-amino-4-(7H-pyrrolo[2,3-d]pyrimidin-4-yl)-1H-pyrazol-1-yl)-1-(ethylsulfonylimino)azetidine-3-yl)acetonitrile], the figures for the concentration for half-maximal inhibition (IC50) (on ROCK1; against ROCK2; in test [1]) were below 5 nM, below 5 nM and 3130 nM, respectively.
